Experimental data: ChEMBL document CHEMBL1122962, “Molecular interactions of toxic chlorinated dibenzo-p-dioxins and dibenzofurans with thyroxine binding prealbumin” (J Med Chem, 1985)

Target: Transthyretin (Homo sapiens) (UniProt P02766)
Experiment: Relative binding affinity against prealbumin in competition binding assay and expressed as relative to L-T4 (100)

Compound	Binding affinity
Oc1c(I)cc(I)cc1I	384
O=C(O)CCCCC(=O)Nc1cc(Cl)cc2c1oc1cc(Cl)c(Cl)cc12	0.32
O=C(O)CCCCC(=O)Nc1cc(Cl)cc2c1Oc1cc(Cl)c(Cl)cc1O2	15
N[C@@H](Cc1cc(I)c(Oc2cc(I)c(O)c(I)c2)c(I)c1)C(=O)O	100
